Test results from patent EP2179993A1, “Sulfoxide substituted aniline pyrimidine derivatives as CDK inhibitors, their manufacture and use as medicine” (Bayer Schering Pharma Aktiengesellschaft, priority 2008, dated 2010).

What was measured:
CDK1/CycB = molecular target: T1, CDK1/CycB (Homo sapiens, UniProt P06493); assay: CDK1/CycB kinase assay (33P-ATP incorporation into histone IIIS, filter strip scintillation); type: biochemical; settings: recombinant CDK1- and CycB-GST fusion proteins; 0,5 µM ATP; 10 min at 22°C; substrate Histon IIIS; read-out: CDK1/CycB (Assay 1) Konzentration der halbmaximalen Inhibition der Enzymaktivität, IC50
T1 construct: GST; purchased ProQinase GmbH, Freiburg; host or cells: baculovirus-infected Sf9 insect cells
T1 sequence (P06493 whole entry, the tested form may be a part): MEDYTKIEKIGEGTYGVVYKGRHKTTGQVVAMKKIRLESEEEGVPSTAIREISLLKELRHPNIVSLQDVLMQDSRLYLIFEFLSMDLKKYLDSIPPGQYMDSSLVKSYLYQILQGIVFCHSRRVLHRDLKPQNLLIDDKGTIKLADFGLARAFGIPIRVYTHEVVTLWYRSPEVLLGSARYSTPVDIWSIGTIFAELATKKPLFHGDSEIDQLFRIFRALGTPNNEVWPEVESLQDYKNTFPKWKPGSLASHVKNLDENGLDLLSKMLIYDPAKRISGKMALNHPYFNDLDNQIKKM
T1 sequence (P14635 whole entry partner, the tested form may be a part): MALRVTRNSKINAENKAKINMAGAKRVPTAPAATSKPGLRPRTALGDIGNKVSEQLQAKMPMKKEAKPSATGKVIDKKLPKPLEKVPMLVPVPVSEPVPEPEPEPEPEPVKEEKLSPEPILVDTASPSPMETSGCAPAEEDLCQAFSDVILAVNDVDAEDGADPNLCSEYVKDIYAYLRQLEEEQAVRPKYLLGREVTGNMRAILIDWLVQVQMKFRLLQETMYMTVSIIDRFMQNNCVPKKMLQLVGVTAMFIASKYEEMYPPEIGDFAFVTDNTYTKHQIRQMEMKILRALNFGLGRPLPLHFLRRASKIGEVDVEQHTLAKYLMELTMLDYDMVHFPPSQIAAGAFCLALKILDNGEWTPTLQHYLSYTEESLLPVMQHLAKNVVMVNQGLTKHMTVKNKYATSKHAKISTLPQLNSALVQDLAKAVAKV
Description: Assay 1: CDK1/CycB Kinase Assay
Rekombinante CDK1- und CycB-GST-Fusionsproteine, gereinigt aus Bakulovirusinfizierten Insektenzellen (Sf9), wurden von ProQinase GmbH, Freiburg, gekauft. Das als Kinase-Substrat verwendet Histon IIIS ist über die Fa. Sigma käuflich zu erwerben.
(§1) CDK1/CycB (200 ng/Messpunkt) wurde für 10 min bei 22°C in Anwesenheit verschiedener Konzentrationen an Testsubstanzen (0 µM, sowie innerhalb des Bereiches 0,001 - 10 µM) in Assaypuffer [50 mM Tris/HCl pH8,0; 10 mM MgCl2; 0,1 mM Na ortho-Vanadat; 1,0 mM Dithiothreitol; 0,5 µM Adenosintrisphosphat (ATP); 10 µg/Messpunkt Histon IIIS; 0,2 µCi/Messpunkt ^33P-gamma ATP; 0,05% NP40; 1,25% Dimethylsulfoxid] inkubiert. Die Reaktion wurde durch Zugabe von EDTA-Lösung (250 mM; pH8,0; 15 µl/Messpunkt) gestoppt.
(§2) Von jedem Reaktionsansatz wurden 15 µl auf P30 Filterstreifen (Fa. Wallac) aufgetragen, und nicht-eingebautes ^33P-ATP wurde durch dreimaliges Waschen der Filterstreifen für je 10 min in 0,5%iger Phosphorsäure entfernt. Nach dem Trocknen der Filterstreifen für 1 Stunde bei 70°C wurden die Filterstreifen mit Szintillator-Streifen (MeltiLex™ A, Fa. Wallac) bedeckt und für 1 Stunde bei 90°C eingebrannt. Die Menge an eingebautem ^33P (Substratphosphorylierung) wurde durch Szintillationsmessung in einem Gamma-Strahlungsmessgerät (Wallac) bestimmt. […]

CDK2/CycE = molecular target: T2, CDK2/CycE (Homo sapiens, UniProt P24941); assay: CDK2/CycE kinase assay (33P-ATP incorporation into histone IIIS, filter strip scintillation); type: biochemical; settings: recombinant CDK2- and CycE-GST fusion proteins; 0,5 µM ATP; 10 min at 22°C; substrate Histon IIIS; read-out: CDK2/CycE (Assay 2) Konzentration der halbmaximalen Inhibition der Enzymaktivität, IC50
T2 construct: GST; purchased ProQinase GmbH, Freiburg; host or cells: baculovirus-infected Sf9 insect cells
Description: Assay 2: CDK2/CycE Kinase Assay
Rekombinante CDK2- und CycE-GST-Fusionsproteine, gereinigt aus Bakulovirusinfizierten Insektenzellen (Sf9), wurden von ProQinase GmbH, Freiburg, gekauft. Histon IIIS, das als Kinase-Substrat verwendet wurde, wurde bei der Fa. Sigma gekauft.
as §1, with “CDK2/CycE (50” for “CDK1/CycB (200”
as §2, with “(MeItiLex™” for “(MeltiLex™”

With `C[C@@H](Oc1nc(Nc2ccc([S+](C)[O-])cc2)ncc1C(F)(F)F)C(C)(C)O` (stereo partly drawn) [Beispiel 2, (R)-3-[2-(4-Methansulfinyl-phenylamino)-5-trifluormethyl-pyrimidin-4-yloxy]-2-methyl-butan-2-ol] the IC50 (CDK1/CycB) was 30 nM and the IC50 (CDK2/CycE) was 12 nM.

For `C[C@@H](O)[C@@H](C)Oc1nc(Nc2ccc([S+](C)[O-])cc2)ncc1C(F)(F)F` (stereo partly drawn) [Beispiel 1, (2R,3R)-3-[2-(4-Methansulfinyl-phenylamino)-5-trifluormethyl-pyrimidin-4-yloxy]-butan-2-ol], the IC50 (CDK1/CycB) was 7 nM and the IC50 (CDK2/CycE) was 5 nM.
